The test system of data set [1] is Human immunodeficiency virus 1. Nature of the data set: Antiviral activity against NNRTI-resistant HIV1 harboring reverse transcriptase K103N mutant infected in human MT2 cells. The format is functional, organism-based. The note with it: Human immunodeficiency virus 1, MT2.
Data set [2] deals with Human immunodeficiency virus 1. Nature of the data set: Antiviral activity against HIV1 harboring reverse transcriptase Y181C mutant infected in human MT2 cells. Format: functional, organism-based. The conditions noted are these: Human immunodeficiency virus 1, MT2.
The next data set deals with Albumin (Homo sapiens, UniProt P02768). Nature of the data set: Binding affinity to human serum albumin. The format is ADME. The note with it: read-out: PB (converted).
Sequence of Albumin (P02768 whole entry): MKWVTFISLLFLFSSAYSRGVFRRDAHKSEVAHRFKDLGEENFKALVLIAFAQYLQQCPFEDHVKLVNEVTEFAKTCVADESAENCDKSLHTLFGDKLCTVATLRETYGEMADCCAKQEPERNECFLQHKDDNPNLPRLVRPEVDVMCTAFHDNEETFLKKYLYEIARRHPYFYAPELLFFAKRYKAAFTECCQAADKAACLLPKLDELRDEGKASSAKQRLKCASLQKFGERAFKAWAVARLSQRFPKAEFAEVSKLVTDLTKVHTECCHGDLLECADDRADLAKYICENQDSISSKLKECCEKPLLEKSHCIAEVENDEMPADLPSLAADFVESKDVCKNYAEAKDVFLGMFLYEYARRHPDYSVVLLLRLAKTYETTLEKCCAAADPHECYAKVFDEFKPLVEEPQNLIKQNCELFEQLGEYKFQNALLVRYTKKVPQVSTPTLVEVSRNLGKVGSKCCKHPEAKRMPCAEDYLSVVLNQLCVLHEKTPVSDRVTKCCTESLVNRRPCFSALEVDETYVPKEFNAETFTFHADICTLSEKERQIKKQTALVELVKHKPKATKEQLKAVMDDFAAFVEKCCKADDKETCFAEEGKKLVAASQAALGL
In data set [3] the test system is Human immunodeficiency virus 1. Nature of the data set: Antiviral activity against wild type HIV1 infected in human MT2 cells. The conditions noted are these: Human immunodeficiency virus 1, MT2. The format is functional, organism-based.
The nature of data set [4]: Volume of distribution at steady state in Beagle dog at 0.5 mg/kg, iv or. 5 mg/kg, po. Format: ADME, organism-based, Canis lupus familiaris. The note with it: in vivo, read-out: Vdss.
The nature of data set [5]: Half life in Beagle dog at 0.5 mg/kg, iv or. 5 mg/kg, po. The note with it: in vivo. Format: ADME, organism-based, Canis lupus familiaris.
A short description of data set [6]: Oral bioavailability in Beagle dog at 2 mg/kg. The format is ADME, organism-based, Canis lupus familiaris. The conditions noted are these: in vivo.
A short description of data set [7]: AUC ((0 to infinity)) in Beagle dog at 5 mg/kg, po dosed as Tablet formulation. The format is ADME, organism-based, Canis lupus familiaris. Details: time infinity, dose 5 mg/kg, route oral. The conditions noted are these: plasma.
Data set [8] can be described thus: Oral bioavailability in Beagle dog at 5 mg/kg, po dosed as Tablet formulation. The format is ADME, organism-based, Canis lupus familiaris. The conditions noted are these: in vivo.
Data set [9] in a line: AUC ((0 to infinity)) in Beagle dog at 5 mg/kg, po dosed as suspension. The format is ADME, organism-based, Canis lupus familiaris. Details: time infinity, dose 5 mg/kg, route oral. The conditions noted are these: plasma.
Data set [10] is described as follows: Aqueous solubility in 50 mM phosphate buffer. The format is physicochemical.
The test system of data set [11] is Human immunodeficiency virus 1. Nature of the data set: Ratio of EC50 for HIV1 harboring reverse transcriptase K103N mutant in absence of 50% human serum to EC50 for HIV1 harboring reverse transcriptase K103N mutant in presence of 50% human serum. The format is functional.
Data set [12] is described as follows: Oral bioavailability in Beagle dog at 5 mg/kg, po dosed as suspension. Format: ADME, organism-based, Canis lupus familiaris. The conditions noted are these: in vivo.
Data set [13] in a line: Oral bioavailability in Beagle dog at 0.5 mg/kg. Format: ADME, organism-based, Canis lupus familiaris. The conditions noted are these: in vivo.
Data set [14] has as its system Human immunodeficiency virus 1. Nature of the data set: Ratio of EC50 for HIV1 harboring reverse transcriptase Y181C mutant in absence of 50% human serum to EC50 for HIV1 harboring reverse transcriptase Y181C mutant in presence of 50% human serum. Format: functional.
The test system of data set [15] is Human immunodeficiency virus 1. Nature of the data set: Ratio of EC50 for wild type HIV1 in absence of 50% human serum to EC50 for wild type HIV1 in presence of 50% human serum. Format: functional.
The nature of data set [16]: Oral bioavailability in Beagle dog at 4 mg/kg. Format: ADME, organism-based, Canis lupus familiaris. The conditions noted are these: in vivo.
In a further data set the test system is Canis familiaris. Nature of the data set: Toxicity in Beagle dog assessed as emesis at greater than 5 mg/kg, po dosed as suspension. The format is organism-based, Canis lupus familiaris. More on the design: dose 5 mg/kg, route oral. The note with it: in vivo.

The values below come from ChEMBL document CHEMBL1154952, “N1-Alkyl pyrimidinediones as non-nucleoside inhibitors of HIV-1 reverse transcriptase” (Bioorg Med Chem Lett, 2010).

In brackets after ≈: the same amount, converted by molar mass.

As a reminder, the EC50 is the concentration needed to bring the measured effect to its halfway point. As to `CCn1c(C(F)(F)c2cc(C)cc(C#N)c2)c(C(C)C)c(=O)[nH]c1=O`, the EC50 in data set [1] is 9 nM; in data set [2], 4.3 nM; in [3], 4.2 nM. Besides, the fraction unbound on Albumin is 0.013.
The half-life is how long it takes for the measured level to halve. Higher therefore signals slow decline. Consider `CCc1c(C(=O)c2cc(C)cc(C#N)c2)n(CC)c(=O)[nH]c1=O`, for which the EC50 in data set [1] is more than 43 nM; in data set [2] it was more than 43 nM; in [3] it was 11.7 nM. The fraction unbound at Albumin was 0.149. For the same molecule, the Vd in data set [4] was found to be 1.53 L/kg. In addition, the half-life in data set [5] is 1.42 h.
For `O=C1Nc2ccc(Cl)cc2[C@@](C#CC2CC2)(C(F)(F)F)O1` [EFAVIRENZ], the fraction unbound on Albumin was 0.001.
For the molecule `CCCCn1c(C(=O)c2cc(C)cc(C#N)c2)c(C(C)C)c(=O)[nH]c1=O`, in [6], the bioavailability was determined as 28%. Further, the EC50 in data set [1] is 10 nM; in [2] it was 12 nM; in data set [3] it was 3 nM. Further, the fraction unbound at Albumin is 0.001. Moreover, in data set [4], the Vd worked out at 2.23 L/kg. The same molecule gave a half-life in [5] of 6.1 h.
Consider `Cc1cc(C#N)cc(C(=O)c2[nH]c(=O)[nH]c(=O)c2C(C)C)c1`, for which the figures for the EC50 in data set [1], in data set [2] and in data set [3] were more than 1 nM, more than 1 nM and more than 500 nM, respectively. Also, the Vd in data set [4] was found to be 0.45 L/kg. The molecule also had a half-life in [5] of 6.4 h.
On to `Cc1cc(C#N)cc(C(=O)c2c(C(C)C)c(=O)[nH]c(=O)n2C)c1`, for which the concentration giving a half-maximal response (EC50) was more than 2.7 nM in data set [1], more than 2.7 nM in data set [2] and 187 nM in data set [3]. The fraction unbound on Albumin is 0.141.
On to `CCn1c(Oc2cc(C)cc(C#N)c2)c(C(C)C)c(=O)[nH]c1=O`, for which the EC50 in [1] is more than 14 nM; in data set [2], 2.6 nM; in [3], 35 nM. Also, the fraction unbound on Albumin is 0.04.
Usually AUC(0-inf) stands for the area under the concentration-time curve extrapolated to infinity. In general, solubility refers to the dissolved amount per volume that the medium holds. A high value points to a readily soluble substance. Consider `CCn1c(C(=O)c2cc(C)cc(C#N)c2)c(C(C)C)c(=O)[nH]c1=O`, for which the figures for the AUC(0-inf) in data set [7] and in data set [9] were 13.5 µM·h and 13.1 µM·h, respectively. Also, the figures for the EC50 in data set [1], in data set [2] and in data set [3] were 6.4 nM, 9.6 nM and 6.1 nM, respectively. Further, the bioavailability worked out at 45.1% in [8], 35.8% in data set [12] and 69% in [13]. The molecule further gave a solubility in data set [10] of 11 µg/mL (≈ 33.8 µM). For the same molecule, the “Ratio EC50” value in data set [11], in [14] and in [15] was 2.7 in each case. The fraction unbound at Albumin was 0.166. Further, in [4], the Vd was determined as 2.25 L/kg. Moreover, in data set [5], the half-life is 6.5 h.
On to `CCn1c(C(F)c2cc(C)cc(C#N)c2)c(C(C)C)c(=O)[nH]c1=O` (stereo not drawn), for which the EC50 is more than 24 nM in data set [1], 8.1 nM in data set [2] and 21 nM in data set [3]. Moreover, the fraction unbound on Albumin is 0.02.
Consider `Cc1cc(C#N)cc(C)c1Oc1nc(Nc2ccc(C#N)cc2)nc(N)c1Br` [ETRAVIRINE], for which, in data set [16], the bioavailability worked out at 13%. Besides, the fraction unbound at Albumin was 0.002. The Vd in [4] was 1.6 L/kg. This molecule showed a half-life in data set [5] of 8.87 h.
For `CCCn1c(C(=O)c2cc(C)cc(C#N)c2)c(C(C)C)c(=O)[nH]c1=O`, the EC50 was more than 36 nM in data set [1], more than 58 nM in [2] and 3.6 nM in data set [3]. For the same molecule, the fraction unbound on Albumin is 0.009. For the same molecule, the Vd in data set [4] came out at 1.4 L/kg. Besides, in data set [5], the half-life was 1.67 h.
For the molecule `CCn1c(C(=O)c2cc(C)cc(C#N)c2)c(C(C)C)c(=O)n(COC(=O)OC(C)C)c1=O`, the AUC(0-inf) in data set [7] amounted to 4.54 µM·h; in [9] it was 54 µM·h. The bioavailability in [8] turned out to be 24%; in [12], 108%. The molecule further registered a solubility in data set [10] of less than 1 µg/mL.
Regarding `CCn1c(C(=O)c2cc(C)cc(C#N)c2)c(C(C)(C)C)c(=O)[nH]c1=O`, the EC50 in data set [1] is 2.7 nM; in [2], more than 50 nM; in data set [3] it was 10 nM. Moreover, the fraction unbound at Albumin was 0.007.
For `CCn1c(C(=O)c2cc(C)cc(C#N)c2)c(C(C)C)c(=O)n(COC(C)=O)c1=O`, the AUC(0-inf) was 8.78 µM·h in [7] and 14.7 µM·h in data set [9]. The bioavailability in [8] came out at 35.3%; in [12] it was 48.9%. The solubility in data set [10] turned out to be 2.2 µg/mL (≈ 5.54 µM).
As to `CCn1c(C(=O)c2cc(C)cc(C#N)c2)c(C(C)C)c(=O)n(COP(=O)(O)O)c1=O`, the Activity result with Canis familiaris was “Toxic”. The same molecule displayed an AUC(0-inf) in [9] of 18.8 µM·h. Besides, the concentration in solution in data set [10] (solubility) came to 12000 µg/mL (≈ 27600 µM). For the same molecule, the bioavailability in data set [12] came to 75.2%.
